Assay [1] has as its target Recombinant SHP-1 protein (Homo sapiens, UniProt P29350). The assay can be described thus: SHP-1 phosphatase activity assay (RediPlate 96 EnzChek Tyrosine Phosphatase Assay kit). Format: biochemical. As to conditions: SC derivatives at 1 μM for 2 hr; recombinant SHP-1 25 ng; control DMSO = 100; mean±SD (N=3). The procedure:
Effects of SC Derivatives on Phosphatase Activity in Recombinant SHP-1 RediPlate 96 EnzChek Tyrosine Phosphatase Assay kit (R-22067) was used for SHP-1 activity assay (Molecular Probes). Recombinant SHP-1 protein (25 ng) was reacted with SC derivatives at 1 μM for 2 hr. Then the SHP-1 phosphatase activity assay was performed according to the user's manual and the absorbance was measured at 465 nm. The control group was DMSO, which functioned as the solvent of the SC derivatives. The values were expressed by mean±SD (N=3).

In assay [2] the test system is PLC5 cells (a hepatocellular carcinoma cell line). The assay is described as follows: Cytotoxicity, MTT cell viability assay. Format: cell-based. As to conditions: 72 h exposure. The procedure:
PLC5 cells (a hepatocellular carcinoma cell line) were seeded at 5×10^3 cells per well in 96-well plates. Then, cells were exposed to SC derivatives at the indicated doses for 72 h. After that, cells were incubated with MTT (1 mg/ml) (Sigma-Aldrich, St. Louis, Mo.) for 2 h at 37° C. Cell viability was then assessed by measuring the absorbance at 570 nm using a microplate reader.
Background: Tetrazolium dyes change colour on reduction, which living cells bring about.

As a reminder, the IC50 is the concentration needed to halve the response being measured. A high value points to lower potency.

Recombinant SHP-1 protein, sequence (P29350 whole entry): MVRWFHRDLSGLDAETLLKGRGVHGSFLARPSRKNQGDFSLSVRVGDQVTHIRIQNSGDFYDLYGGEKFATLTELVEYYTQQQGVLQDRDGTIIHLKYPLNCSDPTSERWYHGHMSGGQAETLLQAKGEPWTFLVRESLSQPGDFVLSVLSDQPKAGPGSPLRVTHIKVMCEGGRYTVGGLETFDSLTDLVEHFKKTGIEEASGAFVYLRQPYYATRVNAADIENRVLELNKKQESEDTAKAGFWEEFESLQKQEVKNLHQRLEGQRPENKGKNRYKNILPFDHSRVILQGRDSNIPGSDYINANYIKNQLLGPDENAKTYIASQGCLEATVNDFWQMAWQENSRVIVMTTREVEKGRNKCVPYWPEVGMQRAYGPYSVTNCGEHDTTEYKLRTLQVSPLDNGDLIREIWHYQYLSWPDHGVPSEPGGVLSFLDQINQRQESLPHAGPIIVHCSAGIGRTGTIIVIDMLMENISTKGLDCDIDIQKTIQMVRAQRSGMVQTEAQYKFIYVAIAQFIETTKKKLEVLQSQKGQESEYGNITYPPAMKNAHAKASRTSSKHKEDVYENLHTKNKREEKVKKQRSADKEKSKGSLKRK

Turning to `Cc1ccc(NC(=O)Nc2ccc(C)c(Oc3ccc(C#N)nc3)c2)cc1Oc1ccc(C#N)cc1` [compound 99, 1-(3-(4-cyanophenoxy)-4-methylphenyl)-3-(3-((6-cyanopyridin-3-yl)oxy)-4-methylphenyl)urea], in assay [1], the “SHP-1 Activity (% of control)” value is given as 99.86 ± 3.65 % of control. The compound further had a half-maximal inhibitory concentration (IC50) in assay [2] of 180 nM.

Consider `Cc1ccc(NC(=O)Nc2ccc(C)c(Oc3ccc(C#N)c(Cl)c3)c2)cc1Oc1ccc(C#N)cc1` [compound 100, 1-(3-(3-chloro-4-cyanophenoxy)-4-methylphenyl)-3-(3-(4-cyanophenoxy)-4-methylphenyl)urea], for which the “SHP-1 Activity (% of control)” value in assay [1] is reported as 94.38 ± 11.11 % of control. In assay [2], this compound had an IC50 of 110 nM.

Turning to `Cc1cc(Oc2cc(NC(=O)Nc3ccc(C)c(Oc4ccc(C#N)nc4)c3)ccc2C)ccc1C#N` [compound 102, 1-(3-(4-cyano-3-methylphenoxy)-4-methylphenyl)-3-(3-((6-cyanopyridin-3-yl)oxy)-4-methylphenyl)urea], the “SHP-1 Activity (% of control)” value in assay [1] is reported as 140.46 ± 12.56 % of control. Moreover, the concentration for half-maximal inhibition (IC50) in assay [2] was determined as 160 nM.

Regarding `Cc1ccc(NC(=O)Nc2ccc(C)c(Oc3ccc(C#N)c(Cl)c3)c2)cc1Oc1ccc(C#N)nc1` [compound 103, 1-(3-(3-chloro-4-cyanophenoxy)-4-methylphenyl)-3-(3-((6-cyanopyridin-3-yl)oxy)51-4-methylphenyl)urea], the “SHP-1 Activity (% of control)” value in assay [1] was 123.75 ± 32.58 % of control. This compound also registered an IC50 in assay [2] of 190 nM.

In the case of `Cc1ccc(NC(=O)Nc2ccc(C)c(Oc3cnc(C#N)c(F)c3)c2)cc1Oc1cnc(C#N)c(F)c1` [compound 104, 1,3-bis(3-((6-cyano-5-fluoropyridin-3-yl)oxy)-4-methylphenyl)urea], the “SHP-1 Activity (% of control)” value in assay [1] is recorded as 139.74 ± 4.92 % of control. This compound also came in with an IC50 in assay [2] above 10000 nM.

As to `N#Cc1ccc(Oc2ccc(F)c(NC(=O)Nc3ccc(Cl)c(C(F)(F)F)c3)c2)cc1` [compound 105, 1-(4-chloro-3-(trifluoromethyl)phenyl)-3-(5-(4-cyanophenoxy)-2-fluorophenyl)urea], in assay [1], the “SHP-1 Activity (% of control)” value is 424.63 ± 10.66 % of control. In assay [2], this compound yielded a concentration for half-maximal inhibition (IC50) of 470 nM.

For the compound `N#Cc1ccc(Oc2ccc(NC(=O)Nc3ccc(Oc4ccc(C#N)cc4)cc3F)c(F)c2)cc1` [compound 106, 1,3-bis(4-(4-cyanophenoxy)-2-fluorophenyl)urea], the “SHP-1 Activity (% of control)” value in assay [1] is given as 147.13 ± 8.51 % of control. Further, the IC50 in assay [2] was above 10000 nM.

As for `Cc1ccc(NC(=O)Nc2cccc3ccc(Oc4ccc(C#N)cc4)cc23)cc1Oc1ccc(C#N)cc1` [compound 107, 1-(3-(4-cyanophenoxy)-4-methylphenyl)-3-(7-(4-cyanophenoxy)naphthalen-1-yl)urea], in assay [1], the “SHP-1 Activity (% of control)” value is 149.03 ± 14.47 % of control. Further, in assay [2], the concentration for half-maximal inhibition (IC50) is above 10000 nM.

Take `N#Cc1ccc(Oc2ccc(NC(=O)Nc3ccc(Cl)c(C(F)(F)F)c3)c(F)c2)cc1Cl` [compound 108, 1-(4-chloro-3-(trifluoromethyl)phenyl)-3-(4-(3-chloro-4-cyanophenoxy)-2-fluorophenyl)urea]: in assay [1], the “SHP-1 Activity (% of control)” value is recorded as 133.11 ± 12.03 % of control. Also, the IC50 in assay [2] is above 10000 nM.

As to `N#Cc1ccc(Oc2ccc3cccc(NC(=O)Nc4ccc(Cl)c(C(F)(F)F)c4)c3c2)cc1Cl` [compound 109, 1-(4-chloro-3-(trifluoromethyl)phenyl)-3-(7-(3-chloro-4-cyanophenoxy)naphthalen-1-yl)urea], the “SHP-1 Activity (% of control)” value in assay [1] was 143.61 ± 5.36 % of control. For the same compound, inhibition in assay [2] was half-maximal at 2070 nM (IC50).

With `Cc1ccc(NC(=O)Nc2cc(Oc3ccc(C#N)cc3)ccc2F)cc1Oc1ccc(C#N)nc1` [compound 110, 1-(5-(4-cyanophenoxy)-2-fluorophenyl)-3-(3-((6-cyanopyridin-3-yl)oxy)-4-methylphenyl)urea], the “SHP-1 Activity (% of control)” value in assay [1] is recorded as 146.29 ± 12.80 % of control. The same compound displayed an IC50 in assay [2] of 7650 nM.

With `N#Cc1ccc(Oc2cc(NC(=O)Nc3ccc(Cl)c(C(F)(F)F)c3)ccc2F)cc1` [compound 111, 1-(4-chloro-3-(trifluoromethyl)phenyl)-3-(3-(4-cyanophenoxy)-4-fluorophenyl)urea], the “SHP-1 Activity (% of control)” value in assay [1] was 156.55 ± 5.99 % of control. Moreover, in assay [2], half-maximal inhibition (IC50) required 240 nM.

On to `N#Cc1ccc(Oc2cc(NC(=O)Nc3ccc(F)c(Oc4ccc(C#N)cc4)c3)ccc2F)cc1` [compound 112, 1,3-bis(3-(4-cyanophenoxy)-4-fluorophenyl)urea], for which the “SHP-1 Activity (% of control)” value in assay [1] is on record as 146.18 ± 14.74 % of control. For the same compound, half-maximal inhibition in assay [2] (IC50) was put at 490 nM.

With `Cc1ccc(NC(=O)Nc2ccc(C)c(Oc3ccc(C#N)c4ccccc34)c2)cc1Oc1ccc(C#N)c2ccccc12` [compound 113, 1,3-bis(3-((4-cyanonaphthalen-1-yl)oxy)-4-methylphenyl)urea], the “SHP-1 Activity (% of control)” value in assay [1] is listed as 153.49 ± 13.55 % of control. For the same compound, the IC50 in assay [2] is above 10000 nM.

On to `Cc1ccc(NC(=O)Nc2ccc(Cl)c(C(F)(F)F)c2)cc1Oc1ccc(C#N)c2ccccc12` [compound 114, 1-(4-chloro-3-(trifluoromethyl)phenyl)-3-(3-((4-cyanonaphthalen-1-yl)oxy)-4-methylphenyl)urea], for which, in assay [1], the “SHP-1 Activity (% of control)” value was 156.85 ± 6.04 % of control. It took 760 nM to reach half-maximal inhibition in assay [2] (IC50).

`Cc1ccc(NC(=O)Nc2cc(C(F)(F)F)cc(C(F)(F)F)c2)cc1Oc1ccc(C#N)cc1` [compound 131, 1-(3,5-bis(trifluoromethyl)phenyl)-3-(3-(4-cyanophenoxy)-4-methylphenyl) urea]: the “SHP-1 Activity (% of control)” value in assay [1] is given as 327.86 ± 34.79 % of control. This compound also had an IC50 in assay [2] of 230 nM.

Turning to `Cc1ccc(NC(=O)Nc2ccc(F)c(C(F)(F)F)c2)cc1Oc1ccc(C#N)cc1` [compound 132, 1-(3-(4-cyanophenoxy)-4-methylphenyl)-3-(4-fluoro-3-(trifluoromethyl)phenyl)urea], the “SHP-1 Activity (% of control)” value in assay [1] is recorded as 151.59 ± 9.68 % of control. Besides, in assay [2], the IC50 is 640 nM.

For the compound `Cc1ccc(NC(=O)Nc2ccc(Cl)c(C(F)(F)F)c2)cc1Oc1ccc(C#N)cc1` [compound 133, 1-(4-chloro-3-(trifluoromethyl)phenyl)-3-(3-(4-cyanophenoxy)-4-methylphenyl)urea], the “SHP-1 Activity (% of control)” value in assay [1] is 253.18 ± 26.17 % of control. In assay [2], this compound had an IC50 of 440 nM.

`Cc1ccc(NC(=O)Nc2cccc(C(F)(F)F)c2)cc1Oc1ccc(C#N)cc1` [compound 134, 1-(3-(4-cyanophenoxy)-4-methylphenyl)-3-(3-(trifluoromethyl)phenyl)urea]: the “SHP-1 Activity (% of control)” value in assay [1] was 152.29 ± 7.92 % of control. Also, half-maximal inhibition in assay [2] (IC50) was put at 740 nM.

With `Cc1ccc(NC(=O)Nc2ccc(CC#N)cc2)cc1Oc1ccc(C#N)cc1` [compound 135, 1-(4-(cyanomethyl)phenyl)-3-(3-(4-cyanophenoxy)-4-methylphenyl)urea], the “SHP-1 Activity (% of control)” value in assay [1] was 153.32 ± 14.65 % of control. Also, the IC50 in assay [2] is 1850 nM.

As to `N#Cc1ccc(Oc2cc(NC(=O)Nc3ccc(F)c(C(F)(F)F)c3)ccc2Cl)cc1` [compound 137, 1-(4-chloro-3-(4-cyanophenoxy)phenyl)-3-(4-fluoro-3-(trifluoromethyl)phenyl)urea], the “SHP-1 Activity (% of control)” value in assay [1] was 180.35 ± 35 % of control. For the same compound, the IC50 in assay [2] was 490 nM.

Regarding `N#Cc1ccc(Oc2cc(NC(=O)Nc3cccc(C(F)(F)F)c3)ccc2Cl)cc1` [compound 138, 1-(4-chloro-3-(4-cyanophenoxy)phenyl)-3-(3-(trifluoromethyl)phenyl)urea], the “SHP-1 Activity (% of control)” value in assay [1] is recorded as 196.54 ± 22.4 % of control. In assay [2], this compound yielded an IC50 of 570 nM.

For `N#Cc1ccc(Oc2cc(NC(=O)Nc3ccc(Cl)c(C(F)(F)F)c3)ccc2Cl)cc1` [compound 139, 1-(4-chloro-3-(4-cyanophenoxy)phenyl)-3-(4-chloro-3-(trifluoromethyl)phenyl)urea], the “SHP-1 Activity (% of control)” value in assay [1] is recorded as 280.62 ± 16.62 % of control. The compound also had an IC50 in assay [2] of 310 nM.

In the case of `C#Cc1cccc(NC(=O)Nc2ccc(Cl)c(Oc3ccc(C#N)cc3)c2)c1` [compound 140, 1-(4-chloro-3-(4-cyanophenoxy)phenyl)-3-(3-ethynylphenyl)urea], in assay [1], the “SHP-1 Activity (% of control)” value is recorded as 140.81 ± 2.48 % of control. Besides, half-maximal inhibition in assay [2] (IC50) required 830 nM.

`N#Cc1ccc(Oc2ccc(Cl)c(NC(=O)Nc3cc(C(F)(F)F)cc(C(F)(F)F)c3)c2)cc1` [compound 141, 1-(3,5-bis(trifluoromethyl)phenyl)-3-(2-chloro-5-(4-cyanophenoxy)phenyl) urea]: the “SHP-1 Activity (% of control)” value in assay [1] is listed as 273.26 ± 86.35 % of control. This compound came in with an IC50 in assay [2] of 280 nM.

In the case of `N#Cc1ccc(Oc2ccc(Cl)c(NC(=O)Nc3ccc(Cl)c(C(F)(F)F)c3)c2)cc1` [compound 142, 1-(4-chloro-3-(trifluoromethyl)phenyl)-3-(2-chloro-5-(4-cyanophenoxy)phenyl)urea], the “SHP-1 Activity (% of control)” value in assay [1] is 249.66 ± 5.81 % of control. In assay [2], half-maximal inhibition (IC50) required 450 nM.

`N#Cc1ccc(Oc2ccc(Cl)c(NC(=O)Nc3ccc(F)c(C(F)(F)F)c3)c2)cc1` [compound 143, 1-(2-chloro-5-(4-cyanophenoxy)phenyl)-3-(4-fluoro-3-(trifluoromethyl)phenyl)urea]: the “SHP-1 Activity (% of control)” value in assay [1] was 198.37 ± 32.5 % of control. For the same compound, the IC50 in assay [2] is 610 nM.

With `C#Cc1cccc(NC(=O)Nc2cc(Oc3ccc(C#N)cc3)ccc2F)c1` [compound 144, 1-(5-(4-cyanophenoxy)-2-fluorophenyl)-3-(3-ethynylphenyl)urea], the “SHP-1 Activity (% of control)” value in assay [1] is on record as 159.94 ± 30.14 % of control. It took 1790 nM to reach half-maximal inhibition in assay [2] (IC50).
